How the values were obtained:
[1] = target: T1, human recombinant full-length Btk enzyme (Homo sapiens, UniProt Q06187); assay: Omnia Continuous Read Kinase Assay, Btk inhibition; assay type: biochemical; set-up: human recombinant full-length Btk enzyme; conditions: 30 minutes pre-incubation at 27° C.; 0.5 nM to 10 μM
Text: The following Example describes testing certain compounds according to the invention for inhibition of BTK activity. The Omnia® Continuous Read Kinase Assay uses an unnatural amino acid chelation enhanced fluorophore (Sox; 8-hydroxy-5-(N,N-dimethylsulfonamido)-2 methylquinoline) incorporated into a kinase-specific peptide substrate to characterize Btk enzyme kinetics and inhibition. Following Btk-mediated phosphorylation, a sensitive, highly quantifiable increase in real-time fluorescence is noted based upon the ability of chelated Mg2+ to form a bridge between Sox and the phosphate group on a tyrosine residue of the peptide substrate. The Omnia® continuous read assay was performed essentially as described by the vendor (Invitrogen; Carlsbad, Calif.). First, a 10× stock of human recombinant full-length Btk enzyme was prepared in Kinase Reaction Buffer. 5 μL of the 10× enzyme was pre-incubated with 0.5 μL of serially diluted compound prepared in 50% DMSO, in a 384-well microtiter plate for 30 minutes at 27° C. 1.13×ATP and the Tyr5-Sox conjugated peptide substrate were prepared in 1× Kinase Reaction Buffer. Kinase reactions were initiated by the addition of 45 μL of the 1.13×ATP-Sox peptide substrate master mix and monitored every 30 to 90 seconds for 60 minutes at λex360/λem485 in a Synergy plate reader. The IC50 values for each compound assayed were determined from test concentrations of 0.5 nM to 10 μM in half-log intervals performed in duplicate.
At the conclusion of each assay, progress curves from each well were examined for linear reaction kinetics and fit statistics (R2, 95% confidence interval, absolute sum of squares) using GraphPad software (GraphPad Prism version 5.01; San Diego, Calif.). Initial velocity (0 minutes to ˜30+ minutes) from each reaction was determined from the slope of a plot of relative fluorescence units versus time (minutes). Using control normalized % inhibition data, plots were constructed against inhibitor concentration to estimate IC50 from log [inhibitor] versus response using a variable slope model in GraphPad. The compound numbers correspond to the compound numbers in Table 1.

[2] = target: T2, BTK (Homo sapiens, UniProt Q06187); assay: Btk target site occupancy, covalent probe ELISA in Ramos cells; assay type: cell-based; conditions: 1 hour at 37° C., 0.09-200 nM, read-out: Ramos cell EC50 (nM), BTK occupancy
T2 construct: endogenous in cells; host or cells: Ramos cells
T2 sequence (Q06187 whole entry): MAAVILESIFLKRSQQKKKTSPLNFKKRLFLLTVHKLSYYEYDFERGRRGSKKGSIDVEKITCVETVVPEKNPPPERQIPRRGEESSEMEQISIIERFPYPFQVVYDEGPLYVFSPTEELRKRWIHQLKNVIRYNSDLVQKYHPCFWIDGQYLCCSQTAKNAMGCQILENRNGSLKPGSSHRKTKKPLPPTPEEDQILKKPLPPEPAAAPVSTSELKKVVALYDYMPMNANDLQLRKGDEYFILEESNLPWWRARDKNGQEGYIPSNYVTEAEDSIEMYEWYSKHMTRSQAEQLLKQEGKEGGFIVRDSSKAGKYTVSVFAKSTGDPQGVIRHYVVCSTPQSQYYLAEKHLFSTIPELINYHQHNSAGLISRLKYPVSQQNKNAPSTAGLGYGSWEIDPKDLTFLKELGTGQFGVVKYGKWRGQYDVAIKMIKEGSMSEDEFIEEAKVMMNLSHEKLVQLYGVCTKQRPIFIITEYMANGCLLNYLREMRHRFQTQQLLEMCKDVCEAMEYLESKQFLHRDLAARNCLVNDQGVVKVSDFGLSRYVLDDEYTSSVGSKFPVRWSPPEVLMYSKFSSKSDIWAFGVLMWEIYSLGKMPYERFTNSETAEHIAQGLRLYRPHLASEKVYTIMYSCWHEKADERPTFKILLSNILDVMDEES
Description: A covalent probe shown below was used in an ELISA assay to determine occupancy of the target BTK by certain compounds according to the invention.
Ramos cells were incubated in serum-free RPMI medium for 1 hour (˜2×10^6 cells/mL in 2 mL). Test compounds were diluted from a 10 mM DMSO stock solution, to achieve a final concentration of 0.09, 0.27, 0.82, 2.47, 7.42, 22.2, 66, and 200 nM. Cells were then incubated for 1 hour at 37° C. Following incubation, cells were spun at 1100 RPM for 5 minutes then washed in 200 μL of chilled PBS. Following the wash, cells were spun at 1100 RPM for 5 minutes. The supernatant was aspirated and then cells were resuspended in lysis buffer containing protease and phosphatase inhibitors. This was followed by centrifugation for 15 minutes at 14000 RPM at 4° C. Supernatant was transferred to a fresh tube. Lysates were stored at −80° C. until assayed.
Samples were thawed and mixed well by vortexing for 5 seconds. 60 μL of each sample was added into the 96-well mixing plate followed by addition of 60 μL of covalent probe solution (2 μM probe in PBS+0.05% Tween-20+1% BSA; 1:2 sample dilution) to each well containing sample. An adhesive cover was then placed on the plate followed by mixing of the plate on a shaker for 1 hour at room temperature. The streptavidin plate was pre-washed 3 times with PBS+0.05% Tween-20. 50 μL of the standards, QCs, and samples were then transferred from the mixing plate to the streptavidin plate. The plate was covered with an adhesive cover and mixed while shaking for 1 hour at room temperature. A 1:1000 dilution of the primary anti-Btk antibody (catalog #611116, Becton Dickinson; Franklin Lakes, N.J.) in PBS+0.05% Tween-20+0.5% BSA was prepared. The streptavidin plate was washed 3 times with PBS+0.05% Tween-20 and 50 μL/well of diluted anti-Btk antibody was then pipetted into the streptavidin plate. The plate was covered and incubated for 1 hour at room temperature. A 1:5000 dilution of secondary antibody (goat anti-mouse-HRP, catalog #62-6520, Zymed-Invitrogen; Carlsbad, Calif.) in PBS+0.05% Tween-20+0.5% BSA was prepared. The streptavidin plate was again washed 3 times with PBS+0.05% Tween-20 and 50 μL/well of diluted secondary antibody was pipetted into the streptavidin plate. The plate was covered and incubated for 1 hour at room temperature. The streptavidin plate was again washed 3 times with PBS+0.05% Tween-20 followed by the addition of 100 μL of TMB solution to each well. The plate was then read on a Synergy^2 plate reader at OD 650 nm until the OD maximum reached 1.0. This was followed by the addition of 100 μL of the Stop Solution. The plate was then read at OD 450 nm. A human recombinant Btk protein standard curve (11.7-3000 pg/μL) was plotted using a 4 parameter curve fit in GenS software (Version 1.05.11; Biotek; Winooski, Vt.;). The sample ODs were read against the standard curve to calculate free protein amounts.
Data were generated as ODs on an ELISA plate reader (Synergy^2, BioTek; Winooski, Vt.). Uninhibited Btk captured by the biotinylated covalent probe was quantitated and normalized to untreated control samples. Results were expressed as % Btk occupancy. EC50 values were generated using a 4 parameter curve fit analysis in GraphPad Prism version 5.0.

[3] = target: T1, human recombinant full-length Btk enzyme; assay: Covalent bonding assay, intact protein MALDI mass spectrometry; assay type: binding; set-up: The full-length recombinant human Btk protein; purchased Invitrogen Lot #619547Q (catalogue number not given); conditions: percentage of total protein covalently modified after one hour incubation, 10-fold excess of compound, room temperature
Description: The following example describes testing certain compounds to determine whether they covalently bind to BTK. The full-length recombinant human Btk protein (Lot #619547Q; 0.35 mg/mL) was obtained from Invitrogen (Carlsbad, Calif.). Btk protein was diluted 2:3 in phosphate-buffered saline and stock concentration (10 mM) of compound was diluted 1:115 in 50% DMSO.
For all compounds, 1 μL of diluted compound was added to 5 μL of diluted protein. These mixtures were then incubated for 60 minutes at a 10-fold excess of compound to protein under room temperature (˜24° C.) conditions.
At the end of the incubation, 5 μL aliquots of the samples were diluted with 15 μL of 0.2% TFA prior to micro C4 ZipTipping® directly onto the MALDI target plate using sinapinic acid as the desorption matrix (10 mg/mL in 0.2% TFA:Acetonitrile 50:50). Samples were immediately analyzed on an ABSciex 4800 MALDI TOF-TOF mass spectrometer.
For intact protein mass measurement, the mass spectrometer was set in linear mode using a pulsed extraction setting of 81,500. Bovine serum albumin (BSA; Sigma, St Louis, Mo.) was used as the standard to calibrate the instrument. These values correspond to the percentage of total protein covalently modified by the tested compound after one hour incubation.

[4] = system: TNF-α, IL-1β, and other inflammatory cytokines; conditions: LPS-stimulated hPBMC and human whole blood; cited from earlier work

T1 sequence (Q06187 whole entry): as above

| SMILES | IC50 [1] [nM] | EC50 [2] [nM] | MS % modification [3] | inhibition of TNF-α, IL-1β, and other inflammatory cytokines [4] |
| --- | --- | --- | --- | --- |
| C=CC(=O)Nc1cc(Nc2nc(Nc3ccc(OCCOC)cc3)ncc2F)ccc1O [Compound I-17, N-(5-((5-fluoro-2-((4-(2-methoxyethoxy)phenyl)amino)pyrimidin-4-yl)amino)-2-hydroxyphenyl)acrylamide] | ≤ 10 |  |  |  |
| C=CC(=O)Nc1cccc(N(C)c2nc(Nc3ccc(OCCO)cc3)ncc2F)c1 [Compound I-24] | ≤ 10 | < 10 |  |  |
| COCCOc1ccc(Nc2ncc(F)c(Nc3cccc(N4OCCC4=O)c3)n2)cc1 [Compound I-27] | 101 to 500 |  |  |  |
| C=CC(=O)Nc1cc(O)cc(Nc2nc(Nc3ccc(OCCOC)cc3)ncc2F)c1 [Compound I-16, N-(3-((5-fluoro-2-((4-(2-methoxyethoxy)phenyl)amino)pyrimidin-4-yl)amino)-5-hydroxyphenyl)acrylamide] | ≤ 10 |  |  |  |
| C=CC(=O)Nc1cccc(Nc2nc(Nc3ccc(OCCOC)c(O)c3)ncc2F)c1 [Compound I-13, N-(3-((5-fluoro-2-((3-hydroxy-4-(2-methoxyethoxy)phenyl)amino)pyrimidin-4-yl)amino)phenyl)acrylamide] | ≤ 10 | < 50 |  |  |
| C=CC(=O)N(C)c1cccc(Nc2nc(Nc3ccc(OCCO)cc3)ncc2F)c1 [Compound I-23, N-(3-((5-fluoro-2-((4-(2-hydroxyethoxy)phenyl)amino)pyrimidin-4-yl)amino)phenyl)-N-methylacrylamide] | ≤ 10 | < 100 |  |  |
| C=CC(=O)Nc1cccc(Nc2nc(N(C)c3ccc(OCCO)cc3)ncc2F)c1 [Compound I-25, N-(3-((5-fluoro-2-((4-(2-hydroxyethoxy)phenyl)(methyl)amino)pyrimidin-4-yl)amino)phenyl)acrylamide] | 101 to 500 |  |  |  |
| O=C(Nc1cccc(Nc2nc(Nc3ccc(OCCO)cc3)ncc2F)c1)C1CO1 (centres unmarked) [Compound I-22, N-(3-((5-fluoro-2-((4-(2-hydroxyethoxy)phenyl)amino)pyrimidin-4-yl)amino)phenyl)oxirane-2-carboxamide] | ≤ 10 | < 50 |  |  |
| COCCOc1ccc(Nc2ncc(F)c(Nc3cccc(NC(=O)C4CO4)c3)n2)cc1 (centres unmarked) [Compound I-19, N-(3-((5-fluoro-2-((4-(2-methoxyethoxy)phenyl)amino)pyrimidin-4-yl)amino)phenyl)oxirane-2-carboxamide] | ≤ 10 | < 10 | A (>70% modification) |  |
| O=C(Nc1cccc(Nc2nc(Nc3ccc(O)cc3)ncc2F)c1)C(O)CO (centres unmarked) [Compound I-6, N-(3-((5-fluoro-2-((4-hydroxyphenyl)amino)pyrimidin-4-yl)amino)phenyl)-2,3-dihydroxypropanamide] | 101 to 500 |  | C (<30% modification) |  |
| O=C(Nc1cccc(Nc2nc(Nc3ccc(OCCO)cc3)ncc2F)c1)C(O)CO (centres unmarked) [Compound I-5, N-(3-((5-fluoro-2-((4-(2-hydroxyethoxy)phenyl)amino)pyrimidin-4-yl)amino)phenyl)-2,3-dihydroxypropanamide] | 101 to 500 |  | C (<30% modification) |  |
| COCCOc1ccc(Nc2ncc(F)c(Nc3cccc(NC(=O)CCO)c3)n2)cc1 [Compound I-26, N-(3-((5-fluoro-2-((4-(2-methoxyethoxy)phenyl)amino)pyrimidin-4-yl)amino)phenyl)-3-hydroxypropanamide] | > 501 |  |  |  |
| Cc1nc2cccc(N)c2c(=O)n1C1CCC(=O)NC1=O (centres unmarked) [compound of formula D, 3-(5-amino-2-methyl-4-oxo-4H-quinazolin-3-yl)-piperidine-2,6-dione] |  |  |  | markedly inhibits |
| COCCOc1ccc(Nc2ncc(F)c(Nc3cccc(NC(=O)C(O)CO)c3)n2)cc1 (centres unmarked) [Compound I-4, N-(3-((5-fluoro-2-((4-(2-methoxyethoxy)phenyl)amino)pyrimidin-4-yl)amino)phenyl)-2,3-dihydroxypropanamide] | 101 to 500 |  | C (<30% modification) |  |
| C=CC(=O)Nc1cccc(Nc2nc(Nc3ccc(OCCOC)cc3)ncc2F)c1O [Compound I-18, N-(3-((5-fluoro-2-((4-(2-methoxyethoxy)phenyl)amino)pyrimidin-4-yl)amino)-2-hydroxyphenyl)acrylamide] | ≤ 10 | < 50 |  |  |
| C=CC(=O)Nc1ccc(O)c(Nc2nc(Nc3ccc(OCCOC)cc3)ncc2F)c1 [Compound I-15, N-(3-((5-fluoro-2-((4-(2-methoxyethoxy)phenyl)amino)pyrimidin-4-yl)amino)-4-hydroxyphenyl)acrylamide] | 11 to 100 |  |  |  |
| C=CC(=O)Nc1cccc(Nc2nc(Nc3ccc(OCCOC)cc3O)ncc2F)c1 [Compound I-14, N-(3-((5-fluoro-2-((2-hydroxy-4-(2-methoxyethoxy)phenyl)amino)pyrimidin-4-yl)amino)phenyl)acrylamide] | ≤ 10 |  |  |  |
| C=CC(=O)Nc1cccc(Nc2nc(Nc3ccc(OCC(=O)O)cc3)ncc2F)c1 [Compound I-2, 2-(4-((4-((3-acrylamidophenyl)amino)-5-fluoropyrimidin-2-yl)amino)phenoxy)acetic acid] | ≤ 10 | > 200 |  |  |
